# From patent US20210070748A1, “INHIBITORS OF BRUTONS TYROSINE KINASE” (Pharmacyclics LLC, priority 2015, published 2021)
# Read-outs that look alike come from different tables or passages of the source.
# How the values were obtained:
# Type in all cases: biochemical
# [1] = target: LCK (Homo sapiens, UniProt P06239); assay: Inhibition of a panel of kinases, in vitro HotSpot kinase assay: LCK; settings: read-out: IC50 LCK
# [2] = target: T1, TEC (Homo sapiens, UniProt P42680); assay: Inhibition of a panel of kinases, in vitro HotSpot kinase assay: TEC
# T1 sequence (P42680 1-631): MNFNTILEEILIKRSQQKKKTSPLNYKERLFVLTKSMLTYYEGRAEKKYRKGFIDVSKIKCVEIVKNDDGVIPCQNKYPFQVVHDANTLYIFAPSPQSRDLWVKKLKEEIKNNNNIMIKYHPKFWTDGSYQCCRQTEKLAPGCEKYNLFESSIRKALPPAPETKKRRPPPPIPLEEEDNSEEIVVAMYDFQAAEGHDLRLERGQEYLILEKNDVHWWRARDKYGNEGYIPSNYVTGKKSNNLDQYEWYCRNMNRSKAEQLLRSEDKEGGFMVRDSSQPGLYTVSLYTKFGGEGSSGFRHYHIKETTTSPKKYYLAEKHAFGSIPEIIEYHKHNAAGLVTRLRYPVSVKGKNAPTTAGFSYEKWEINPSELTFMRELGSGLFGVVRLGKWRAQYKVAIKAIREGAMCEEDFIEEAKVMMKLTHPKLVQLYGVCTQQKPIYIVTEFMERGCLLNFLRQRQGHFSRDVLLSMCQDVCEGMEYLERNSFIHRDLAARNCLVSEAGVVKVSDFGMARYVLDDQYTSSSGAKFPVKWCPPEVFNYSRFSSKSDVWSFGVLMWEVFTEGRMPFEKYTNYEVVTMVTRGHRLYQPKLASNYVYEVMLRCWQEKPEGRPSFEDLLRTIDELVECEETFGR
# Experimental: (§1) The degree of inhibition of a panel of kinases is determined using the in vitro HotSpot kinase assay (purified enzymes, ^33P-ATP, an appropriate substrate and 1 μM ATP).
# [3] = target: EGFR (Homo sapiens, UniProt P00533); assay: Inhibition of a panel of kinases, in vitro HotSpot kinase assay: EGFR
# EGFR, sequence (P00533 25-1210): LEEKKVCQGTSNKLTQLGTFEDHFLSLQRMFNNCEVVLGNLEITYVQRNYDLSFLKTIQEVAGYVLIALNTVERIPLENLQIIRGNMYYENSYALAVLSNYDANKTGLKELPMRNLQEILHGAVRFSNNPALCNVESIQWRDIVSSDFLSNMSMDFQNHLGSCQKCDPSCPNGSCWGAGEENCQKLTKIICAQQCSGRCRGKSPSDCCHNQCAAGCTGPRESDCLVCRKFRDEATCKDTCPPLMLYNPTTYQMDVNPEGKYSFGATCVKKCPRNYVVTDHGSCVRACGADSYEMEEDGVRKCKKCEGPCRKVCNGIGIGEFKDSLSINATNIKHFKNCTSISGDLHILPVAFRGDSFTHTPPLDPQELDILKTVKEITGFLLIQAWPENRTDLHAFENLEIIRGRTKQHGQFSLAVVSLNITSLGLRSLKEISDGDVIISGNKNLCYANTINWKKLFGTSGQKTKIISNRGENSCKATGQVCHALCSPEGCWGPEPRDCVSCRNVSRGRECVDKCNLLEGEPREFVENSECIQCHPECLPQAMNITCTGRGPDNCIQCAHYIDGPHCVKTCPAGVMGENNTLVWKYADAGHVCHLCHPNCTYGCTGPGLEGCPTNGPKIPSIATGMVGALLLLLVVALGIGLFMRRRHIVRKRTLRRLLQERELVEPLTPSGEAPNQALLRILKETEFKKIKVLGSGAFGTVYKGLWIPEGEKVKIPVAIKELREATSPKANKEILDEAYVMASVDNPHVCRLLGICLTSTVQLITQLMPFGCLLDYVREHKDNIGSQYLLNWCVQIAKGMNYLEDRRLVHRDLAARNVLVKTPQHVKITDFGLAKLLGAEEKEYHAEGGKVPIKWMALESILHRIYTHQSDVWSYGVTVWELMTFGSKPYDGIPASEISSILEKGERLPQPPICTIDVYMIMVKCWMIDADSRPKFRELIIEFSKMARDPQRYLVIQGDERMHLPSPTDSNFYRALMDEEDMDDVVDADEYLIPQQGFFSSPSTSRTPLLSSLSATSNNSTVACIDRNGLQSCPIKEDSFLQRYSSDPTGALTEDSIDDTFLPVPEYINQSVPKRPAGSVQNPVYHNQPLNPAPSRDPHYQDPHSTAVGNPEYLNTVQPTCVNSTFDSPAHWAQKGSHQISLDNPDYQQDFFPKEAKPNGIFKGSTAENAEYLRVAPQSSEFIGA
# Experimental: as §1
# [4] = target: T2, ITK (Homo sapiens, UniProt Q08881); assay: Inhibition of a panel of kinases, in vitro HotSpot kinase assay: ITK
# T2 sequence (Q08881 1-620): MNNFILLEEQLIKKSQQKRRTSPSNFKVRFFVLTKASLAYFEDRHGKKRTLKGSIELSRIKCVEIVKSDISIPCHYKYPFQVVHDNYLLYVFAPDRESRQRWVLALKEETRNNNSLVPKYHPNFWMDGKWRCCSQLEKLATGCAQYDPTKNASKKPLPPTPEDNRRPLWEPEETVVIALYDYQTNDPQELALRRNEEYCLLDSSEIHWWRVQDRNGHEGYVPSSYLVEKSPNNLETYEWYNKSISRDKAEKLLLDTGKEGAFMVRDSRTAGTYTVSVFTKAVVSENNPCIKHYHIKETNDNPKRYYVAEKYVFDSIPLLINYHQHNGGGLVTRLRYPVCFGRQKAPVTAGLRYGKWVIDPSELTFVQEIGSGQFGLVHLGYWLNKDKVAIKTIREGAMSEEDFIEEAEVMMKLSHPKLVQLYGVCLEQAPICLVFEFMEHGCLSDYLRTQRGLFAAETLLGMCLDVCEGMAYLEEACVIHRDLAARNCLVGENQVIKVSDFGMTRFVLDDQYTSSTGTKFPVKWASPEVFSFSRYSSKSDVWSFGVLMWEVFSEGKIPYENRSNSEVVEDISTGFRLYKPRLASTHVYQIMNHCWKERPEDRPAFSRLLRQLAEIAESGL
# Experimental: as §1
# [5] = D-compounds panel data, 1 μM ATP
# LCK, sequence (P06239 whole entry): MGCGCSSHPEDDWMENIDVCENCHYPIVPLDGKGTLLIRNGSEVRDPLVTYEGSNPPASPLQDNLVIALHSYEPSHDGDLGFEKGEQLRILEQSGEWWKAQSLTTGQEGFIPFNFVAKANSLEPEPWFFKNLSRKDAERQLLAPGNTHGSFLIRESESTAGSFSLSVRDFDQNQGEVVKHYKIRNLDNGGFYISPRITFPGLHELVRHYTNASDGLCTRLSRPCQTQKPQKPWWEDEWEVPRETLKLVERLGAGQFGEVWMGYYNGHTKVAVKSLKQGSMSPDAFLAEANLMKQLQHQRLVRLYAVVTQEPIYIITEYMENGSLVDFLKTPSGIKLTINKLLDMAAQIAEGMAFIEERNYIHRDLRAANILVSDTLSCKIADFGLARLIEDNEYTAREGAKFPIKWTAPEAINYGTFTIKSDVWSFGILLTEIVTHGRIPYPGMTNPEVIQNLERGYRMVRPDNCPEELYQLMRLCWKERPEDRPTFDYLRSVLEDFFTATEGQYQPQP
SMILES,"IC50 [1, 5] [nM]","IC50 [2, 5] [nM]","IC50 [3, 5] [nM]","IC50 [4, 5] [nM]","IC50 ([1]; E compounds, Table 17) [nM]","IC50 ([2]; E compounds, Table 17) [nM]","IC50 ([3]; E compounds, Table 17) [nM]","IC50 ([4]; E compounds, Table 17) [nM]"
"C[C@@H]1[C@H](NC(=O)C23CC(C2)C3)CCCN1c1cnc(C(N)=O)c(Nc2cnn(C)c2)n1 [Example D-90, 5-[(2R,3R)-3-{bicyclo[1.1.1]pentane-1-amido}-2-methylpiperidin-1-yl]-3-[(1-methyl-1H-pyrazol-4-yl)amino]pyrazine-2-carboxamide]",100 to 1000,10 to 100,1000 to 10000,100 to 1000,,,,
"C[C@@H]1[C@H](NC(=O)c2ccc(C3CC3)cc2)CCCN1c1cnc(C(N)=O)c(Nc2ccc(N3CCC(C(=O)N(C)C)CC3)cc2)n1 [Example D-320, 5-[(2R,3R)-3-(4-cyclopropylbenzamido)-2-methylpiperidin-1-yl]-3-({4-[4-(dimethylcarbamoyl)piperidin-1-yl]phenyl}amino)pyrazine-2-carboxamide]",10 to 100,≤ 10,100 to 1000,10 to 100,,,,
"Cn1cc(Nc2nc(N3CC[C@@H](O)[C@H](NC(=O)c4ccc(C5CC5)cc4)C3)cnc2C(N)=O)cn1 (racemic) [Example D-26, (racemic)-trans-5-[3-(4-cyclopropylbenzamido)-4-hydroxypiperidin-1-yl]-3-[(1-methyl-1H-pyrazol-4-yl)amino]pyrazine-2-carboxamide]",1000 to 10000,100 to 1000,> 10000,1000 to 10000,,,,
"CN(C)C(=O)N[C@H]1CCCN(c2cnc(C(N)=O)c(Nc3ccc(C4(C)CCN(C5CCCC5)CC4)cc3)n2)[C@H]1CO [Example D-59, 3-{[4-(1-cyclopentyl-4-methylpiperidin-4-yl)phenyl]amino}-5-[(2R,3S)-3-[(dimethylcarbamoyl)amino]-2-(hydroxymethyl)piperidin-1-yl]pyrazine-2-carboxamide]",1000 to 10000,> 10000,1000 to 10000,1000 to 10000,,,,
"C[C@@H]1[C@H](NC(=O)c2ccc(C3CC3)cc2F)CCCN1c1cnc(C(N)=O)c(Nc2nc3c(s2)CN(C)CC3)n1 [Example D-62, 5-[(2R,3R)-3-(4-cyclopropyl-2-fluorobenzamido)-2-methylpiperidin-1-yl]-3-({5-methyl-4H,5H,6H,7H-[1,3]thiazolo[5,4-c]pyridin-2-yl}amino)pyrazine-2-carboxamide]",> 10000,100 to 1000,> 10000,> 10000,,,,
"CN(C)C(=O)N1CC[C@@H]2[C@H]1CCCN2c1cnc(C(N)=O)c(Nc2cnn(C)c2)n1 (racemic) [Example D-50, (racemic)-cis-5-[1-(dimethylcarbamoyl)-octahydro-1H-pyrrolo[3,2-b]pyridin-4-yl]-3-[(1-methyl-1H-pyrazol-4-yl)amino]pyrazine-2-carboxamide]",1000 to 10000,100 to 1000,> 10000,1000 to 10000,,,,
"CN(C)C(=O)N[C@@H]1CCCN(c2cnc(C(N)=O)c(Nc3ccc(C4(C)CCN(C5CCCC5)CC4)cc3)n2)[C@H]1CO [Example D-60, 3-{[4-(1-cyclopentyl-4-methylpiperidin-4-yl)phenyl]amino}-5-[(2R,3R)-3-[(dimethylcarbamoyl)amino]-2-(hydroxymethyl)piperidin-1-yl]pyrazine-2-carboxamide]",1000 to 10000,1000 to 10000,1000 to 10000,100 to 1000,,,,
"C[C@@H]1[C@H](N2CCN(C)C2=O)CCCN1c1cnc(C(N)=O)c(Nc2cnn(C)c2)n1 [Example D-93, 3-[(1-methyl-1H-pyrazol-4-yl)amino]-5-[(2R,3R)-2-methyl-3-(3-methyl-2-oxoimidazolidin-1-yl)piperidin-1-yl]pyrazine-2-carboxamide]",100 to 1000,10 to 100,1000 to 10000,100 to 1000,,,,
"CN(C)C(=O)N[C@H]1CCCN(c2cnc(C(N)=O)c(Nc3ccc(C4(C)CCN(C5CCCC5)CC4)cc3)n2)[C@@H]1CO [Example D-61, 3-{[4-(1-cyclopentyl-4-methylpiperidin-4-yl)phenyl]amino}-5-[(2S,3S)-3-[(dimethylcarbamoyl)amino]-2-(hydroxymethyl)piperidin-1-yl]pyrazine-2-carboxamide]",1000 to 10000,> 10000,> 10000,1000 to 10000,,,,
"C[C@@H]1[C@H](NC(=O)c2ccc(C3CC3)cc2F)CCCN1c1cnc(C(N)=O)c(Nc2ccc(C3(C)CCN(C4CCCC4)CC3)cc2)n1 [Example D-66, 3-{[4-(1-cyclopentyl-4-methylpiperidin-4-yl)phenyl]amino}-5-[(2R,3R)-3-(4-cyclopropyl-2-fluorobenzamido)-2-methylpiperidin-1-yl]pyrazine-2-carboxamide]",< 10,≤ 10,10 to 100,10 to 100,,,,
"C=CC(=O)N1CC[C@@H](N(C)c2cnc(C(N)=O)c(Nc3ccc(C4(C)CCN(C5CCCC5)CC4)cc3)n2)C1 [Example E-106, (R)-5-((1-acryloylpyrrolidin-3-yl)(methyl)amino)-3-(4-(1-cyclopentyl-4-methylpiperidin-4-yl)phenylamino)pyrazine-2-carboxamide]",,,,,10 to 100,≤ 10,≤ 10,≤ 10

# Continued, in another order:
"IC50 [1, 5] [nM]","IC50 [2, 5] [nM]","IC50 [3, 5] [nM]","IC50 [4, 5] [nM]",SMILES,"IC50 ([1]; E compounds, Table 17) [nM]","IC50 ([2]; E compounds, Table 17) [nM]","IC50 ([3]; E compounds, Table 17) [nM]","IC50 ([4]; E compounds, Table 17) [nM]"
10 to 100,≤ 10,1000 to 10000,100 to 1000,"C[C@@H]1[C@H](NC(=O)c2ccc3c(c2)C(C)(C)CO3)CCCN1c1cnc(C(N)=O)c(Nc2cnn(C)c2)n1 [Example D-55, 5-[(2R,3R)-3-(3,3-dimethyl-2,3-dihydro-1-benzofuran-5-amido)-2-methylpiperidin-1-yl]-3-[(1-methyl-1H-pyrazol-4-yl)amino]pyrazine-2-carboxamide]",,,,
100 to 1000,10 to 100,> 10000,1000 to 10000,"C[C@H]1C[C@@H](NC(=O)c2ccc(C3CC3)cc2)CN(c2cnc(C(N)=O)c(Nc3cnn(C)c3)n2)C1 [Example D-30, 5-[(3R,5S)-3-(4-cyclopropylbenzamido)-5-methylpiperidin-1-yl]-3-[(1-methyl-1H-pyrazol-4-yl)amino]pyrazine-2-carboxamide]",,,,
100 to 1000,10 to 100,1000 to 10000,100 to 1000,"Cn1cc(Nc2nc(N3C[C@H](CO)C[C@H](NC(=O)c4ccc(C5CC5)cc4)C3)cnc2C(N)=O)cn1 (racemic) [Example D-43, (racemic)-cis-5-[3-(4-cyclopropylbenzamido)-5-(hydroxymethyl)piperidin-1-yl]-3-[(1-methyl-1H-pyrazol-4-yl)amino]pyrazine-2-carboxamide]",,,,
100 to 1000,10 to 100,> 10000,100 to 1000,"Cn1cc(Nc2nc(N3CCC[C@@H](NC(=O)c4ccc(C(C)(C)O)cc4)C3)nnc2C(N)=O)cn1 [Example D-39, 3-[(3R)-3-[4-(2-hydroxypropan-2-yl)benzamido]piperidin-1-yl]-5-[(1-methyl-1H-pyrazol-4-yl)amino]-1,2,4-triazine-6-carboxamide]",,,,
1000 to 10000,100 to 1000,> 10000,1000 to 10000,"C[C@@H]1C[C@@H](NC(=O)c2ccc(C3CC3)cc2)CN(c2cnc(C(N)=O)c(Nc3cnn(C)c3)n2)C1 [Example D-31, 5-[(3R,5R)-3-(4-cyclopropylbenzamido)-5-methylpiperidin-1-yl]-3-[(1-methyl-1H-pyrazol-4-yl)amino]pyrazine-2-carboxamide]",,,,
> 10000,> 10000,> 10000,> 10000,"NC(=O)c1ncc(N2CCC[C@@H](NC(=O)c3ccc(C4CC4)cc3F)C2)nc1Nc1cc(-c2ccccc2)ns1 [Example D-3, 5-[(3R)-3-(4-cyclopropyl-2-fluorobenzamido)piperidin-1-yl]-3-[(3-phenyl-1,2-thiazol-5-yl)amino]pyrazine-2-carboxamide]",,,,
